Data on three molecules can be found in patent US20200207782A1, “CHEMICALLY ACTIVATED WATER-SOLUBLE PRODRUG” (SUMITOMO DAINIPPON PHARMA CO., LTD, priority 2017, published 2020).

Values after ≈ are worked out from the molar mass of the structure shown. Values joined by “and” are separate entries in the source; they are usually repeats but may differ in a detail not shown here. Equal entries are not always repeated. Structures can show the parent of a compound that is named as a salt.

The nature of data set [1]: Evaluation of conversion rate to active form in human plasma. The conditions noted are these: human, 10 umol/L. In kind it is in vitro ADME. The procedure: (§1) The ratio of decrease of a test compound and the conversion ratio to a corresponding active form (2-acetylthieno[3,2-f][1]benzofuran-4,8-dione) in human plasma and CD1 mouse plasma were measured for Example 1.
(§2) The test compounds were incubated at 37° C. at a concentration of 10 umol/L in human plasma (cat. no. 12250210, Cosmo Bio) and CD1 mouse plasma (cat. no. AP3054, KAC) and retrieved for a given time (0, 5, 10, 30, 60, and 120 minutes) and deproteinized, then analyzed by LC-MS. Acetonitrile comprising each of 10% quantity of 1 mol/L hydrochloric acid, 1% quantity of 46% citric acid, and phenytoin as an internal standard was used for deproteinization.
(§3) LC-MS measurement conditions were the following.
(§4) The yield of the Examples compounds and active form 2-acetylthieno[3,2-f][1]benzofuran-4,8-dione is calculated with each of the peak area of the Example compounds at 0 minutes and the peak area upon dissolution of 2-acetylthieno[3,2-f][1]benzofuran-4,8-dione at 100 umol/L as 100%. The yield is denoted in terms of %.
(§5) In the same manner as Example 1, the conversion ratio to an active form was measured for each of the various test compounds in human plasma and CD1 mouse plasma, with incubation time as 120 minutes. It was confirmed that the series of compounds of the invention was converted to an active form with a small interspecies difference in human plasma and CD1 mouse plasma.
(§6) The yield of the active forms is calculated with the each peak area upon dissolution of the generated active form at 100 umol/L as 100%. The yield is denoted in terms of %.

Data set [2] is described as follows: Evaluation of conversion rate to active form in CD1 mouse plasma. The class given is in vitro ADME. Particulars: CD1, mouse, 10 umol/L. The procedure: as §1, §2, §3, §4, §5, §6
A short description of data set [3]: physchem. The conditions noted are these: pH 2, aqueous buffer, thermodynamic from solid.
Description: (§7) The solubility of the water-soluble prodrugs described in the Examples and the Reference Examples was measured. […] The filtrate was measured by HPLC.
The conditions of data set [4]: pH 2.
Description: as §7
Data set [5] is described as follows: Solution stability test (residual ratio and generation of active form in buffers of pH 2.0 to 9.0). Particulars: for Residual ratio: 25 umol/L. The class given is physicochemical. Further details: Rate of generation of active form after 24 hours in buffer with pH of 7.4: tested at 25 µM. How it is done:
The test compounds were incubated at 25° C. at a concentration of 25 umol/L in a buffer prepared to have a pH of 2.0, 3.0, 5.0, 7.4, and 9.0. The compounds were measured by HPLC after 0, 3, 6, 9, 12, and 24 hours.
The buffers used at each pH are the following. • pH 2.0: 50 mmol/L glycine buffer • pH 3.0: 50 mmol/L citrate buffer • pH 5.0: 50 mmol/L citrate buffer • pH 7.4: 50 mmol/L phosphate buffer • pH 9.0: 50 mmol/L glycine buffer
The measurement conditions for HPLC are the following.
The yield of the Example and Reference Example compounds and active forms is calculated with each of the peak area of the Example and Reference Example compounds at 0 minutes and the peak area upon dissolution of the corresponding active form at 100 umol/L as 100%. The yield is denoted in terms of %

In the case of `CC(=O)c1cc2c(o1)C(=O)c1sccc1C2=O` [2-acetylthieno[3,2-f][1]benzofuran-4,8-dione, reference compound], the “Measurement value % of active form (conversion ratio to active form)” value was 0.0% in data set [1] (0 min); 36.4% in data set [1] (5 min); 51.6% in data set [1] (10 min); 83.4% in data set [1] (30 min); 89.7% in data set [1] (60 min); 91.3% in data set [1] (120 min). For the same molecule, the “Measurement value % of active form (conversion ratio to active form)” value in data set [2] (0 min) came to 0.0%; in data set [2] (5 min), 21.1%; in data set [2] (10 min), 36.7%; in data set [2] (30 min), 70.8%; in data set [2] (60 min), 73.8%; in data set [2] (120 min) it was 71.4%. The amount in solution in data set [3] (50 mmol/L glycine buffer) (solubility at 24 h) came to 4 µg/mL (≈ 16.2 µM).
Turning to `C[C@H]1COC2=C1C(=O)C(=O)c1c2ccc2c1CCCC2(C)C` [(1R)-1,6,6-trimethyl-1,2,6,7,8,9-hexahydrophenanthro[1,2-b]furan-10,11-dione], the Solubility in buffer entry in data set [4] is “Below”.
`C[C@H]1COc2c1c(OC(=O)NCCNCC(=O)O)c(OC(=O)NCCNCC(=O)O)c1c3c(ccc21)C(C)(C)CCC3` [Example 12, 2,2′-{[(1R)-1,6,6-trimethyl-1,2,6,7,8,9-hexahydrophenanthro [1,2-b]furan-10,11-diyl]bis(oxycarbonylazanediylethane-2,1-diylazanediyl)}diacetic acid dihydrochloride] yielded a solubility at 24 h in data set [3] of more than 10000 µg/mL. Further, the Residual ratio in data set [5] (pH2.0 buffer, 25° C., 0 hr) was determined as 100%; in data set [5] (pH2.0 buffer, 25° C., 3 hr), 99.4%; in data set [5] (pH2.0 buffer, 25° C., 6 hr), 98.9%; in data set [5] (pH2.0 buffer, 25° C., 9 hr), 98.7%; in data set [5] (pH2.0 buffer, 25° C., 12 hr), 98.5%; in data set [5] (pH2.0 buffer, 25° C., 24 hr) it was 98.5%. For the same molecule, the Residual ratio in data set [5] (pH3.0 buffer, 25° C., 0 hr) came out at 100%; in data set [5] (pH3.0 buffer, 25° C., 3 hr) it was 99.2%; in data set [5] (pH3.0 buffer, 25° C., 6 hr), 98.9%; in data set [5] (pH3.0 buffer, 25° C., 9 hr), 98.6%; in data set [5] (pH3.0 buffer, 25° C., 12 hr), 98.4%; in data set [5] (pH3.0 buffer, 25° C., 24 hr) it was 98.3%. Further, the Residual ratio is 100% in data set [5] (pH5.0 buffer, 25° C., 0 hr); 99.1% in data set [5] (pH5.0 buffer, 25° C., 3 hr); 98.1% in data set [5] (pH5.0 buffer, 25° C., 6 hr); 97.1% in data set [5] (pH5.0 buffer, 25° C., 9 hr); 96.4% in data set [5] (pH5.0 buffer, 25° C., 12 hr); 93% and 93.3% in data set [5] (pH5.0 buffer, 25° C., 24 hr, dihydrochloride). Also, the Residual ratio in data set [5] (pH7.4 buffer, 25° C., 0 hr) is listed as 100%; in data set [5] (pH7.4 buffer, 25° C., 3 hr), 9.8%; in data set [5] (pH7.4 buffer, 25° C., 6 hr), 1.7%; in data set [5] (pH7.4 buffer, 25° C., 9 hr) it was 1.4%; in data set [5] (pH7.4 buffer, 25° C., 12 hr) it was 0%; in data set [5] (pH7.4 buffer, 25° C., 24 hr), 0%. Besides, the “Degradation behaviour in buffers (in words)” value in data set [5] (pH 2.0 to 9.0) was “pH dependent and chemical degradation progressed”. Also, in data set [5] (pH 7.4 buffer, 24 hours, 25° C.), the “Rate of generation of active form after 24 hours in buffer with pH of 7.4” value amounted to 11%. Moreover, the “Stability in solution (in words)” value in data set [5] (pH of 2.0, 25° C.) was “stable”; in data set [5] (pH of 3.0, 25° C.), “stable”.

One may read the solubility as the concentration that dissolves in the medium under given conditions.
